Data published in patent US5530133A, “7'-amino-naphthazarin antibiotic derivatives” (Gruppo Lepetit SpA, priority 1995, dated 1996).

How the values were obtained:
[1] = system: Trichomonas vaginalis (clin. isol.); experiment: MIC by broth dilution, Trichomonas vaginalis; format: cell-based; settings: code TVL; approx. 10^5 cells/ml; Trichomonas Culture Medium Base + 10% horse serum; 48 h, 37° C.
Experimental: Inocula were approximately 10^4 cfu. Incubation was for 48 hours at 37° C. in nitrogen-carbon dioxide-hydrogen (80:10:10). […] The inoculum was approximately 10^5 cells/ml. After 48 hours of incubation at 37° C. in nitrogen-carbon dioxide-hydrogen (80:10:10) the wells were viewed directly with a microscope to detect the presence of viable (motile) protozoa.

[2] = system: Gardnerella vaginalis ATCC 14018; experiment: MIC by agar dilution, Gardnerella vaginalis; format: cell-based; settings: code 332; Casman medium + rabbit blood; approx. 10^4 cfu; 48 h, 37° C.
[3] = system: Gram-positive and Gram-negative bacteria and fungi; settings: according to U.S. Pat. No. 3,914,257; fungi incl. Trichophyton mentagrophytes and Candida albicans; cited from earlier work

Compound | MIC [1] | MIC [2] | in vitro antimicrobial activity [3]
CCNC1=CC(=O)c2c(O)c3c(c(O)c2C1=O)OC1(C3)CC(O)c2cc3cc(C(=O)OC)oc(=O)c3c(O)c2O1 (stereo not shown) [Example 10, 7'-ethylamino purpuromycin] | 8 mg/L | 2 mg/L | 
CNC1=CC(=O)c2c(O)c3c(c(O)c2C1=O)OC1(CCc2cc4cc(C(=O)OC)oc(=O)c4c(O)c2O1)C3 (stereo not shown) [Example 32, 7'-methylamino γ-rubromycin] | 2 mg/L |  | 
COC(=O)c1cc2cc3c(c(O)c2c(=O)o1)OC1(Cc2c(O)c4c(c(O)c2O1)C(=O)C(OC)=CC4=O)CC3O (stereo not shown) [purpuromycin] |  |  | active in vitro against both Gram-positive and Gram-negative bacteria and fungi
